Values after ≈ are worked out from the molar mass of the structure shown. Where two headings read alike, the source gives them in different places.
Legend:
[1] = test system: Streptococcus pneumoniae DSM‐20566; assay: bacterial growth assay (MIC), S. pneumoniae DSM‐20566; assay type: cell-based
ECF‐PanT = ECF‐PanT (Streptococcus pneumoniae, UniProt A0A0H2ZPG6+A0ACD7PRR9+Q04HV7+Q97N51); assay: SPR binding to immobilized ECF‐PanT; conditions: for Kd: SPR, S. pneumoniae ECF‐PanT, n = 2; for kon: pH 7.5, read-out: k a; for koff: pH 7.5, read-out: k d
Procedure: The ECF‐PanT, ECF‐module, and ECF‐FolT2, each bearing a histidine tag, were immobilized on a high‐affinity poly‐nitrilotriacetic acid (poly‐NTA) sensor chip, which was initially activated using NiCl2.
Additionally, the protein was maintained in the buffer containing 5% (v/v) DMSO. For a more in‐depth description of the procedures, please refer to Appendix S1.
Surface plasmon resonance (SPR)
The SPR binding studies were performed using a Reichert 4SPR surface plasmon resonance spectrometer (Reichert Technologies, Buffalo, NY, USA), and medium–density NTA derivatized polycarboxylate hydrogel NiHC200M sensor chips (XanTec Bioanalytics, Düsseldorf, Germany). The experimental procedure involved two rounds of nickel activation and one immobilization step at a […]
standard protocol as provided by Xantec bioanalytics with a slight modification based on the recombinant proteins. The flow-cell 4 was left blank to serve as a reference.
The immobilization buffer employed for the immobilization process consisted of 10 mM HEPES with a pH of 7.5, 50 mM NaCl, 50 µM EDTA, and 0.05% DDM without DMSO. Following the immobilization step, for the binding study of the compounds, the running buffer was exchanged for the mentioned buffer with 5% v/v DMSO. This was done to ensure consistency in the percentage of DMSO present in the solutions containing the respective testing inhibitors, as these inhibitors were soluble in the DMSO solvent. By maintaining the same DMSO concentration, we aimed to minimize any potential solvent-related effects on the assay results. All running buffers were filtered and degassed before use.
The system was initially primed with 5 mM NiCl2 with an association and dissociation time of 2 min for each to activate the NTA sensor chip. Then, the recombinant proteins with a concentration of 200 nM were injected at a flow rate of 10 µL/min for 8 min. Finally, the baseline check with the running […]
First, the calibration curve for correction of the DMSO effect was prepared; the concentrations were […]
concentration of DMSO in all the samples was set to 5% v/v DMSO. The samples (200 µL) were loaded on a 96-well plate and were injected at a flow rate of 50 μL/min. Single-cycle kinetics were applied for KD determination. The association time was set to 60 s, and the dissociation phase was recorded for 120 s. For surface regeneration, 0.35 M EDTA (pH 8.5) and 0.1 M NaOH were used. Data processing and […]
were calculated by sequential subtractions of the corresponding curves obtained from the reference flow cell and the running buffer (blank). SPR responses were expressed in the resonance unit (RU). The KD values were calculated by global fitting of the kinetic curves as well as fitting of the steady state binding responses to a 1:1 Langmuir interaction model.
The SPR experiments were conducted at least two times, representing independent replicates. The […]
interactions, are presented in Figure S12 for ECF-PanT, Figure S13 for ECF-FolT2, and Figure S14 for […]

S. pneumoniae ECF‐PanT = assay: Transport‐activity assay, radiolabeled pantothenate uptake into proteoliposomes; assay type: biochemical, Streptococcus pneumoniae; conditions: 250 μM compound + 5 mM of Mg-ATP, relative to 5 mM Mg‐ATP alone
Procedure: Based on the reported transport activity assay on L. delbrueckii (Swier et al., [2016]), for the first time, we adapted this assay to a pathogenic bacterium. To do so, we purified the ECF‐PanT transporter, reconstituted it into proteoliposomes, and carried out transport assays with radiolabeled pantothenate. Upon the addition of MgATP, the radiolabeled pantothenate is translocated across the membrane via an ATP‐dependent mechanism. MgATP at 5 mM served as a positive control, supplying the proteins with the energy needed to complete the transport cycle, while MgADP at 5 mM was used as a negative control. The uptake of the radiolabeled substrate into proteoliposomes was measured using a scintillation counter.
The assay was performed based on the published protocol (Swier et al., [2016]). The only modification was reconstitution of S. pneumoniae ECF‐PanT in a 1:125 (w/w) ratio of protein to E. coli polar lipids into large unilamellar vesicles and using radiolabeled pantothenate for uptake.

[2] = Equilibrium, K D, steady state fit
[3] = Kinetic, K D, global fit of kinetic curves
[4] = global fit of kinetic curves, read-out: Kinetic, K D
[5] = steady state fit, read-out: Equilibrium, K D

Q: Which results are given for O=C(O)c1cc(OCc2cccc3ccccc23)ccc1O [Compound 1]?
A: MIC [1]: 128 µM (≈ 37.7 µg/mL); Kd (ECF‐PanT; [2]): 277 ± 5 µM; Kd (ECF‐PanT; [3]): 276 ± 4 µM; Percentage inhibition of pantothenate uptake (S. pneumoniae ECF‐PanT): 81.8%

Q: What does the source list for O=C(O)c1cc(OCc2ccc(Br)c3ccccc23)ccc1O [Compound 2]?
A: MIC [1]: 8 µM (≈ 2.99 µg/mL); Kd (ECF‐PanT; [2]): 170 ± 5 µM; Kd (ECF‐PanT; [3]): 172 ± 2 µM; Percentage inhibition of pantothenate uptake (S. pneumoniae ECF‐PanT): 117.2%

Q: What does the source list for CC(C)(C)OC(=O)Nc1ccc(OCc2cccc3ccccc23)cc1C(=O)O [Compound 3]?
A: MIC [1]: 16 µM (≈ 6.3 µg/mL); Kd (ECF‐PanT; [2]): 96 ± 8 µM; Kd (ECF‐PanT; [3]): 99 ± 1 µM; kon (ECF‐PanT): 650 ± 9 M⁻¹ s⁻¹; koff (ECF‐PanT): 0.0643 ± 0.0006 s⁻¹; Percentage inhibition of pantothenate uptake (S. pneumoniae ECF‐PanT): 80.7%

Q: How did the MIC [1] turn out when O=C(O)c1cccc(NCc2ccc(-c3ccc(Cl)cc3)o2)c1 [Compound 4] was run?
A: Its MIC is 64 µM (≈ 21 µg/mL).

Q: What about the Kd (ECF‐PanT; [4]) of the same molecule?
A: The Kd was 317 ± 3 µM.

Q: What about the Kd (ECF‐PanT; [5]) of the same molecule?
A: Its Kd is 304 ± 6 µM.

Q: What about the kon (ECF‐PanT) of the same molecule?
A: Its kon is 399 ± 4 M⁻¹ s⁻¹.

Q: And the koff (ECF‐PanT)?
A: Its koff is 0.127 ± 0.001 s⁻¹.

Q: And the “Percentage inhibition of pantothenate uptake” value (S. pneumoniae ECF‐PanT)?
A: Its value is 95.2%.

Q: What does the source list for O=C(O)c1cccc(NCc2ccc(-c3cccc(Cl)c3)o2)c1 [Compound 5]?
A: MIC [1]: 128 µM (≈ 42 µg/mL); Kd (ECF‐PanT; [4]): 451 ± 8 µM; Kd (ECF‐PanT; [5]): 420 ± 10 µM; kon (ECF‐PanT): 348 ± 7 M⁻¹ s⁻¹; koff (ECF‐PanT): 0.157 ± 0.002 s⁻¹; Percentage inhibition of pantothenate uptake (S. pneumoniae ECF‐PanT): 90.6%

Q: O=C(O)c1cccc(NCc2ccc(-c3ccccc3Cl)o2)c1 [Compound 6] was tested. Which MIC [1] did it give?
A: The MIC was 128 µM (≈ 42 µg/mL).

Q: And the Kd (ECF‐PanT; [4])?
A: The Kd was 391 ± 6 µM.

Q: What about the Kd (ECF‐PanT; [5]) of the same molecule?
A: The Kd was 374 ± 6 µM.

Q: What about the kon (ECF‐PanT) of the same molecule?
A: Its kon is 376 ± 6 M⁻¹ s⁻¹.

Q: What about the koff (ECF‐PanT) of the same molecule?
A: Its koff is 0.147 ± 0.002 s⁻¹.

Q: What about the “Percentage inhibition of pantothenate uptake” value (S. pneumoniae ECF‐PanT) of the same molecule?
A: Its value is 61.9%.
